In PubChem BioAssay AID330 (DTP/NCI, 2004):
“And” between values parts separate entries of the source, which are not always exact repeats. Equal values may be shown once. Toxic doses and inconclusive results are not listed.

Test system: P388 leukemia ip, CD2F1 mice, survival T/C
Assay: NCI In Vivo Anticancer Drug Screen. Data for tumor model P388 Leukemia (intraperitoneal) in CD2F1 (CDF1) mice
Details: endpoint: median survival time, higher = longer survival
Outline: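 Mice carrying the transplanted tumor received test compound or vehicle. Survival was recorded in each group, and the value is the treated-group measurement divided by that of the vehicle-treated control group.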

[1] = dose: 12.5 mg/kg/injection, schedule: Q01DX009 (ip), vehicle: Klucel (hydroxypropylcellulose) (HPC)
[2] = dose: 25.0 mg/kg/injection, schedule: Q01DX009 (ip), vehicle: Klucel (hydroxypropylcellulose) (HPC)
[3] = dose: 50.0 mg/kg/injection, schedule: Q01DX009 (ip), vehicle: Klucel (hydroxypropylcellulose) (HPC)
[4] = dose: 50.0 mg/kg/injection, schedule: Q01DX009 (ip), vehicle: saline with Tween-80
[5] = dose: 100.0 mg/kg/injection, schedule: Q01DX009 (ip), vehicle: saline with Tween-80
[6] = dose: 200.0 mg/kg/injection, schedule: Q01DX009 (ip), vehicle: saline with Tween-80
[7] = dose: 60.0 mg/kg/injection, schedule: Q01DX005 (ip), vehicle: saline with Tween-80
[8] = dose: 120.0 mg/kg/injection, schedule: Q01DX005 (ip), vehicle: saline with Tween-80
[9] = dose: 240.0 mg/kg/injection, schedule: Q01DX005 (ip), vehicle: saline with Tween-80
[10] = dose: 12.5 mg/kg/injection, schedule: Q01DX009 (ip), vehicle: saline
[11] = dose: 25.0 mg/kg/injection, schedule: Q01DX009 (ip), vehicle: saline
[12] = dose: 50.0 mg/kg/injection, schedule: Q01DX009 (ip), vehicle: saline
[13] = dose: 200.0 mg/kg/injection, schedule: Q01DX009 (ip), vehicle: saline
[14] = dose: 50.0 mg/kg/injection, schedule: Q01DX005 (ip), vehicle: saline with Tween-80
[15] = dose: 100.0 mg/kg/injection, schedule: Q01DX005 (ip), vehicle: saline with Tween-80
[16] = dose: 200.0 mg/kg/injection, schedule: Q01DX005 (ip), vehicle: saline with Tween-80

CN1CC2CC3=C(CCC45CC6C(C=C34)C63CCC4(CC67CCC8C9(C)CCCC8%10C(C6CC4CC7%10)N(C)C9)OC53)C(C)(C2)C1 (centres undefined)
T/C [1]: 93 % of control | T/C [2]: 103 % of control | T/C [3]: 111 % of control

CC(C)C1OC(/C=C/c2ccccc2)OCC1(C)C (centres undefined)
T/C (dose: 25.0 mg/kg/injection, schedule: Q04DX003 (ip), vehicle: saline with Tween-80): 102 % of control | T/C (dose: 50.0 mg/kg/injection, schedule: Q04DX003 (ip), vehicle: saline with Tween-80): 102 % of control | T/C (dose: 100.0 mg/kg/injection, schedule: Q04DX003 (ip), vehicle: saline with Tween-80): 104 % of control | T/C (dose: 200.0 mg/kg/injection, schedule: Q04DX003 (ip), vehicle: saline with Tween-80): 98 % of control | T/C (dose: 400.0 mg/kg/injection, schedule: Q04DX003 (ip), vehicle: saline with Tween-80): 102 % of control

O=C(NCc1ccccc1)OCc1c(COC(=O)NCc2ccccc2)c(-c2ccc(Cl)c(Cl)c2)n2c1CCC2
T/C (dose: 3.13 mg/kg/injection, schedule: Q01DX009 (ip), vehicle: distilled water + Tween-80): 105 % of control | T/C (dose: 6.25 mg/kg/injection, schedule: Q01DX009 (ip), vehicle: distilled water + Tween-80): 151 % of control | T/C (dose: 12.5 mg/kg/injection, schedule: Q01DX009 (ip), vehicle: distilled water + Tween-80): 158 % of control and 161 % of control | T/C (dose: 25.0 mg/kg/injection, schedule: Q01DX009 (ip), vehicle: distilled water + Tween-80): 160 % of control and 174 % of control | T/C (dose: 50.0 mg/kg/injection, schedule: Q01DX009 (ip), vehicle: distilled water + Tween-80): 164 % of control and 182 % of control | T/C (dose: 100.0 mg/kg/injection, schedule: Q01DX009 (ip), vehicle: distilled water + Tween-80): 194 % of control and 196 % of control

N=c1oc2ccccc2cc1C(=O)NNC(=O)c1ccncc1
T/C (dose: 100.0 mg/kg/injection, schedule: Q01DX001 (ip), vehicle: saline): 96 % of control | T/C (dose: 200.0 mg/kg/injection, schedule: Q01DX001 (ip), vehicle: saline): 96 % of control | T/C (dose: 400.0 mg/kg/injection, schedule: Q01DX001 (ip), vehicle: saline): 102 % of control

C#CCOC1CC(C)(O)Cc2cc3c(c(O)c21)C(=O)c1c(O)cc2c(c1C3=O)OC1OC2(C)C(O)C(N(C)C)C1O (centres undefined)
T/C (dose: 20.0 mg/kg/injection, schedule: Q01DX009 (ip), vehicle: other): 89 % of control

CCCCCCCCCCCCCCCCCc1n[nH]c(=S)o1
T/C [4]: 99 % of control | T/C [5]: 99 % of control | T/C [6]: 98 % of control

CC(=O)N1c2ccccc2C(O)C1OC(=O)c1cccc(Cl)c1 (centres undefined)
T/C [7]: 100 % of control | T/C [8]: 103 % of control | T/C [9]: 89 % of control

C=CCNC(=S)NCCN(CCO)C(=S)NCC=C
T/C [10]: 105 % of control | T/C [11]: 104 % of control | T/C [12]: 104 % of control and 93 % of control | T/C [13]: 98 % of control

CCOC(=O)CC(=O)c1sc(Nc2ccccc2)c(C(N)=O)c1N
T/C [14]: 100 % of control | T/C [15]: 94 % of control | T/C [16]: 94 % of control

COC(=O)C(CC(C)C)NC(=O)C(Cc1cnc[nH]1)NC(=O)C(CS)N(C(=O)OCc1ccccc1)C(=O)OCc1ccccc1 (centres undefined)
T/C [14]: 99 % of control | T/C [15]: 98 % of control | T/C [16]: 100 % of control

CCOC(=O)c1cc2nc3ccccn3c(=O)c2cc1N
T/C (dose: 12.5 mg/kg/injection, schedule: Q01DX009 (ip), vehicle: saline with Tween-80): 105 % of control and 93 % of control | T/C (dose: 25.0 mg/kg/injection, schedule: Q01DX009 (ip), vehicle: saline with Tween-80): 87 % of control and 90 % of control | T/C [4]: 92 % of control | T/C [5]: 86 % of control and 96 % of control

C/C=C1/C[N+]2(C)CCC34c5ccccc5NC32C(O)CC1C4(CO)C(=O)OC (centres undefined)
T/C (dose: 2.0 mg/kg/injection, schedule: Q01DX009 (ip), vehicle: saline): 109 % of control | T/C (dose: 4.0 mg/kg/injection, schedule: Q01DX009 (ip), vehicle: saline): 106 % of control | T/C (dose: 8.0 mg/kg/injection, schedule: Q01DX009 (ip), vehicle: saline): 100 % of control | T/C (dose: 16.0 mg/kg/injection, schedule: Q01DX009 (ip), vehicle: saline): 106 % of control

CCOP(=O)(O)C1CCCC(C)[N-]1.CCOP(=O)(O)C1CCCC(C)[N-]1.CCOP(=O)(O)C1CCCC(C)[N-]1.[Cr+3] (centres undefined)
T/C (dose: 100.0 mg/kg/injection, schedule: Q04DX003 (ip), vehicle: Klucel (hydroxypropylcellulose) (HPC)): 100 % of control | T/C (dose: 200.0 mg/kg/injection, schedule: Q04DX003 (ip), vehicle: Klucel (hydroxypropylcellulose) (HPC)): 92 % of control

C/C=C(\C)C(=O)OC1CC(C)(O)C(=O)C(OC(=O)/C(C)=C/C)C2(C)CCC(O)(C(C)C)C12 (centres undefined)
T/C [4]: 105 % of control | T/C [5]: 101 % of control | T/C [6]: 100 % of control | T/C (dose: 400.0 mg/kg/injection, schedule: Q01DX009 (ip), vehicle: saline with Tween-80): 95 % of control

C[O+]=c1ccc2ccc(-c3ccccc3)sc-2c1
T/C (dose: 60.0 mg/kg/injection, schedule: Q01DX005 (ip), vehicle: Klucel (hydroxypropylcellulose) (HPC)): 106 % of control | T/C (dose: 120.0 mg/kg/injection, schedule: Q01DX005 (ip), vehicle: Klucel (hydroxypropylcellulose) (HPC)): 105 % of control

CC1=CC(=C(c2ccc(N)cc2)c2ccc(N)cc2)C=CC1=N
T/C (dose: 1.56 mg/kg/injection, schedule: Q01DX005 (ip), vehicle: water): 117 % of control | T/C (dose: 3.12 mg/kg/injection, schedule: Q01DX005 (ip), vehicle: saline): 117 % of control | T/C (dose: 12.5 mg/kg/injection, schedule: Q01DX005 (ip), vehicle: water): 116 % of control

COC(C(N)=O)c1ccccc1 (centres undefined)
T/C [10]: 120 % of control | T/C [11]: 110 % of control | T/C [12]: 103 % of control | T/C [13]: 103 % of control | T/C (dose: 400.0 mg/kg/injection, schedule: Q01DX009 (ip), vehicle: saline): 106 % of control

CC(C)(C)c1cc(C(=S)SCc2ccccc2)cc(C(C)(C)C)c1O
T/C [4]: 93 % of control | T/C [5]: 105 % of control | T/C [6]: 105 % of control

O=C(O)C1SCSC1C(=O)O (centres undefined)
T/C (dose: 25.0 mg/kg/injection, schedule: Q01DX009 (ip), vehicle: other): 94 % of control | T/C (dose: 50.0 mg/kg/injection, schedule: Q01DX009 (ip), vehicle: other): 100 % of control | T/C (dose: 100.0 mg/kg/injection, schedule: Q01DX009 (ip), vehicle: other): 90 % of control | T/C (dose: 200.0 mg/kg/injection, schedule: Q01DX009 (ip), vehicle: other): 98 % of control

CCOC(=O)C1C[S][Sn]2([NH]1)[NH]C(C(=O)OCC)C[S]2 (centres undefined)
T/C (dose: 50.0 mg/kg/injection, schedule: Q01DX005 (ip), vehicle: Klucel (hydroxypropylcellulose) (HPC)): 99 % of control | T/C (dose: 100.0 mg/kg/injection, schedule: Q01DX005 (ip), vehicle: Klucel (hydroxypropylcellulose) (HPC)): 106 % of control | T/C (dose: 200.0 mg/kg/injection, schedule: Q01DX005 (ip), vehicle: Klucel (hydroxypropylcellulose) (HPC)): 101 % of control

CCN(CC)CCNC(=S)NNc1nc(C)ccc1[N+](=O)[O-]
T/C [1]: 99 % of control | T/C [2]: 95 % of control | T/C [3]: 87 % of control and 97 % of control

CN(C)CCc1ccccn1
T/C (dose: 25.0 mg/kg/injection, schedule: Q04DX003 (ip), vehicle: saline): 101 % of control | T/C (dose: 50.0 mg/kg/injection, schedule: Q04DX003 (ip), vehicle: saline): 115 % of control | T/C (dose: 100.0 mg/kg/injection, schedule: Q04DX003 (ip), vehicle: saline): 94 % of control

CCOC(=O)C(NC(=O)C(CO)n1c(-c2ccccc2)c(-c2ccccc2)oc1=O)C(=O)OCC (centres undefined)
T/C [7]: 105 % of control | T/C [8]: 104 % of control | T/C [9]: 90 % of control

C=C1CCC2C(C)(CCC(O)C2(C)C(=O)O)C1CCc1ccoc1 (centres undefined)
T/C (dose: 20.0 mg/kg/injection, schedule: Q01DX005 (ip), vehicle: other): 95 % of control | T/C (dose: 40.0 mg/kg/injection, schedule: Q01DX005 (ip), vehicle: other): 100 % of control | T/C (dose: 80.0 mg/kg/injection, schedule: Q01DX005 (ip), vehicle: other): 103 % of control | T/C (dose: 160.0 mg/kg/injection, schedule: Q01DX005 (ip), vehicle: other): 95 % of control

Cc1c2ccncc2c(C)c2c1[nH]c1cc(O)ccc12
T/C (dose: 3.13 mg/kg/injection, schedule: Q04DX003 (ip), vehicle: distilled water + Tween-80): 104 % of control | T/C (dose: 6.25 mg/kg/injection, schedule: Q04DX003 (ip), vehicle: distilled water + Tween-80): 108 % of control and 111 % of control | T/C (dose: 12.5 mg/kg/injection, schedule: Q04DX003 (ip), vehicle: distilled water + Tween-80): 122 % of control
